One experiment deals with Fusarium verticilloides. Description: MTT cell viability assay for determination of IC50 for chemical fungicides. The following applies: for IC50: Fusarium, read-out: IC50 for F. verticilloides. In kind it is cell-based. The procedure: (§1) Assays were carried out in 1.5 mL microcentrifuge tubes. The indicated fungicides were dissolved in DMSO at a stock concentration of 1 mg/mL. Enzymes were desalted into 50 mM MES buffer, pH 6.0 using a 200 mL Sephadex G25 column with 9.5 mL/min flowrate before adding to the germination assay. […] The reaction mixture without fungicide served as a negative inhibition control, and a reaction mixture containing 0.2 mg/mL mannase acid or 20 mg/mL M-PEG (1,2-propanediol) served as a positive inhibition control. The spore germination mixture was incubated at 27° C. for 3 days. At the end of the incubation period, 200 μL of 3-(4,5-dimethylthiazol-2-yl)-2,5-diphenyltetrazolium bromide (MTT) dye was added to the existing 400 μL of assay culture and was incubated for another 3 hr at 27° C. in the dark. The tubes were then centrifuged, and the supernatants were discarded. To the residue left in the tubes, 200 μL of DMSO was added to dissolve the formazan formed by the live fungal cells. The tubes were vortexed and centrifuged again. 100 μL of the supernatant from each tube was transferred into a separate well in a 96-well microtiter plate and absorbance was measured at 540 nm. Inhibition of fungal germination and growth by enzymes was determined relative to the uninhibited control for samples without chemical fungicide, and relative to the 50% inhibited cultures for samples containing each of the chemical fungicides tested.
(§2) Each fungicide was dissolved in DMSO at 1 mg/mL concentration, then added to the germination assay at final concentrations of 0, 0.01, 0.02, 0.04, 0.06, 0.08 mg/mL.
In general terms: Tetrazolium dyes change colour on reduction, which living cells bring about.

The subject of experiment [1] is Colletotrichum gleosporoides. Described as above. The class given is cell-based. The note with it: read-out: IC50 for C. gleosporoides. The method, then:
as §1, §2

In a further experiment the target is Septoria nodorum. The class given is cell-based.
For another experiment, the target named is Fusarium virguliforme. The class given is cell-based.
The target of a further experiment is Fusarium graminearum. In kind it is cell-based.

In brackets after ≈: the same amount, converted by molar mass.

By IC50 is commonly meant the concentration at which inhibition is half-maximal. For `OC(Cc1ccccc1Cl)(Cn1nc[nH]c1=S)C1(Cl)CC1` (centres unmarked) [Prothioconazole, prothioconazole], the figures for the IC50 (in the experiment with Fusarium verticilloides; in experiment [1]) were 22 µg/mL (≈ 63.9 µM) and 13 µg/mL (≈ 37.8 µM), respectively.
The corresponding values for `CON=C(C(=O)OC)c1ccccc1CON=C(C)c1cccc(C(F)(F)F)c1` [Trifloxystrobin, trifloxystrobin] are 6 µg/mL (≈ 14.7 µM) and 18 µg/mL (≈ 44.1 µM).
For catalase, at Septoria nodorum, the “EC50 Enzyme” value is 285 µg/mL and the IC50 plus chemistry is greater than 500 µg/mL.
glucose oxidase: the “EC50 Enzyme” value at Fusarium virguliforme, at Septoria nodorum, at Fusarium graminearum and at Botrytis cinerea was less than 1 µg/mL throughout. The IC50 plus chemistry with Fusarium virguliforme, in the experiment with Septoria nodorum, with Fusarium graminearum and in the experiment with Botrytis cinerea was less than 1 µg/mL throughout.
lysozyme: at Fusarium virguliforme, the “EC50 Enzyme” value is greater than 500 µg/mL and the IC50 plus chemistry turned out to be 2 µg/mL.
As to propineb [Antracol (Propineb)], the “IC50 for F. verticilloides” value in the experiment on Fusarium verticilloides (50% inhibition of germination and growth, fit IC50) is roughly 300 µg/mL.

The values are drawn from patent publication US20210251239A1 (priority 2018, published 2021).
